≈ marks a conversion by molar mass, not a printed value.
Columns and labels:
rat colon = assay: Cascade Assay, colon (smooth muscle stimulant effect); format: cell-based; conditions: superfused, 50% of maximum (PGF2α)
Protocol: (§1) The smooth muscle stimulant effects of test compounds were determined simultaneously in four different tissues that are known to be reactive to naturally occurring prostaglandins. Segments of rat stomach fundus, rat colon, chick rectum and rabbit aortic strip were obtained as described by: Vane, J. R., Brit. J. Pharmacol., 12: 344 (1957); Regoli, D. and Vane, J. R., Brit. J. Pharmacol., 23: 351 (1964); Mann, M. and West, G. B., Brit. J. Pharmacol., 5: 173 (1950); and Furchgott, R. F. and Bhadrakom, R., J. Pharmacol. Exper. Ther., 108: 129 (1953). One end of each preparation was tied to the bottom of a 10 ml tissue chamber and the other to a force displacement transducer (Grass FT-03) for continuous tension recording. The stomach, colon, and rectum segments were stretched to an initial tension of 1 g, while the aortic strip was subjected to 4 g. All preparations were left undisturbed for 1 hour prior to testing. The chambers were equipped with an external jacket through which water, maintained at 40° C, was circulated. Preparations were arranged one beneath the other in descending order (aorta, stomach, colon and rectum). Provision was made for bathing the four tissues successively so that they were superfused with the same fluid (Gaddum, H. J., Brit. J. Pharmacol., 6: 321 [1953]. The bathing fluid consisted of: Krebs bicarbonate solution aerated with a mixture of 95% O2 and 5% CO2 and warmed at 37° C; atropine sulphate (0.1 mcg/ml), phenoxybenzamine hydrochloride (0.1 mcg/ml), propranolol hydrochloride (3.0 mcg/ml), methysergide maleate (0.2 mcg/ml) and brompheniramine maleate (0.1 mcg/ml) were added to eliminate the possibility of smooth muscle responses being due to stimulation of cholinergic, adrenergic, serotonin or histamine receptors. The fluid was circulated by means of a roller pump and was allowed to drip over the preparations at a rate of 10 ml/minute.
(§2) Test compounds were diluted from stock solutions so as to administer quantities ranging from 0.001 100,000 ng in a volume of 0.5 ml. The compounds were applied by dripping on the uppermost tissue, at intervals of 10 to 20 minutes. Maximal increases in tension after each dose were measured and the results were used to plot dose-response curves. ED50 data (doses necessary to produce a response 50% of maximum) were then calculated graphically for each tissue.
(§3) Activity in each tissue was scored according to the following scale: […]

Rat Uterus = assay: Effects on the Rat Uterus in Vitro; format: cell-based; conditions: for EC50: Rattus norvegicus, in vitro, 29° C, response 50% that of carbachol, read-out: Test F Rat Uterus, Activity Value (ED50)
Protocol: The uterine stimulant effect of test compounds was determined in segments of uterus obtained from rats (140-160 g) pretreated subcutaneously with 1 mg/kg of diethyl-stilbesterol 18 hours before the experiment. The tissues were placed in 10 ml chambers filled with de-Jalon solution at 29° C, were aerated and bubbled with 95% O2 and 5% CO2, and were prepared for isometric recording with force displacement transducers. Preparations were stretched to an initial tension of 1 g and were left undisturbed for 30 minutes. Carbachol (1 mcg/ml) was then added to the bath and a response was recorded. After a 10 minute interval the carbachol procedure was repeated. Responses to increasing concentrations of a test compound (0.001 to 10 mcg/ml with one log intervals) were then recorded every 10 minutes. Preparations were washed four times after each response. All doses of compounds were administered in a 0.1 ml volume. Because it has been observed that the magnitude of the second response to carbachol (approximately 10% greater than the first) is close to the maximal response of the tissue, such value was taken as a measure of the sensitivity of a particular segment. Responses to each concentration of the test compound were expressed in terms of percentage of the second response to carbachol and the ED50 (dose producing a response 50% that of carbachol) was calculated graphically. Activity was scored according to the following scale: […]

Gastric Secretion = assay: Effects on Gastric Secretion in the Rat; format: in vivo; conditions: pylorus-ligated rat, subcutaneous, 2 x 1.5 mg/kg (total 3.0 mg/kg), 4 hours
Protocol: A procedure based on that described by Lipmann (J. Pharm. Pharmacol., 21:335 [1968]) was used to assess the influence of test compounds on gastric secretion. Rats of one sex weighing 150 to 200 g were randomly divided into groups of six animals each and fasted for 48 hours previously to the experiments, water being available adlibitum. The animals were anesthetized with ether, the abdomen was opened through a midline incision and the pylorus was ligated. Test compounds were diluted from stock solution so as to administer a dose of 1.5 mg/kg in a volume equivalent to 1 ml/kg. Subcutaneous injections were applied immediately after surgery and again 2 hours later, so that a total dose of 3.0 mg/kg was administered. Dilutions were made with phosphate buffer (pH 7.38) as recommended by Lee et al. (Prostaglandins 3:29 [1973]), in order to insure adequate stability of drugs at the subcutaneous depot. Each compound was tested in one group of rats; an additional control group received only the vehicle.
Four hours after pyloric ligation the animals were killed with ether, the cardias ligated and the stomachs removed. The volume of gastric secretion was measured and the contents centrifuged at 500 rpm for 10 minutes. Total acid in the supernatant was titrated against a 0.1 N sodium hydroxide solution and the amount expressed in mEq.
Volume and total acid values of the treated group were compared with those of the controls by the "T" test. Antisecretory activity was scored according to the following scale: […]

rabbit aortic strip = assay: Cascade Assay, aorta (smooth muscle stimulant effect); format: cell-based; conditions: superfused, 50% of maximum (PGA2)
Protocol: as §1, §2, §3

rat stomach fundus = assay: Cascade Assay, stomach (smooth muscle stimulant effect); format: cell-based; conditions: superfused, 50% of maximum (PGE1)
Protocol: as §1, §2, §3

chick rectum = assay: Cascade Assay, rectum (smooth muscle stimulant effect); format: cell-based; conditions: superfused, 50% of maximum (PGE1)
Protocol: as §1, §2, §3

Structure (SMILES): COC(=O)CCC/C=C\C[C@H]1C(=O)CCC[C@@H]1/C=C/[C@@H](O)C1CC2(CCC2)C1 (relative stereo) [TR-4758, dl Methyl-7-{6-ozo-2R-∂3S-hydroxy-3-(spiro[3.3]hept-2-yl)-1E-propenyl]cyclohex-1R-yl}hept-5Z-enoate]
- Test E Cascade Assay, Colon, Activity Value (ED50) (rat colon): 0 (>10000)
- EC50 (Rat Uterus): > 10 µg/mL
- Test B Activity Value (% decrease in acidity, inhibition of gastric secretion) (Gastric Secretion): 0 (<26)
- Test E Cascade Assay, Aorta, Activity Value (ED50) (rabbit aortic strip): 0 (>10000)
- Test E Cascade Assay, Stomach, Activity Value (ED50) (rat stomach fundus): 0 (>10000)
- Test E Cascade Assay, Rectum, Activity Value (ED50) (chick rectum): 0 (>10000)

Structure (SMILES): COC(=O)CCC/C=C\C[C@H]1C(=O)CCC[C@@H]1/C=C/[C@H](O)C1CC2(CCC2)C1 (relative stereo) [TR-4759, dl Methyl-7-{6-oxo-2R-[3R-hydroxy-3-(spiro[3.3]hept-2-yl)-1E-propenyl]cyclohex-1R-yl}hept-5Z-enoate]
- Test E Cascade Assay, Colon, Activity Value (ED50) (rat colon): 0 (>10000)
- EC50 (Rat Uterus): > 10 µg/mL
- Test B Activity Value (% decrease in acidity, inhibition of gastric secretion) (Gastric Secretion): 0 (<26)
- Test E Cascade Assay, Aorta, Activity Value (ED50) (rabbit aortic strip): 0 (>10000)
- Test E Cascade Assay, Stomach, Activity Value (ED50) (rat stomach fundus): 0 (>10000)
- Test E Cascade Assay, Rectum, Activity Value (ED50) (chick rectum): 0 (>10000)

Structure (SMILES): O=C1C[C@@H](O)[C@H](/C=C/[C@H](O)C2CC3(CCC3)C2)[C@H]1CCCCCCCO [TR-4713, 7-{3R-hydroxy-5-oxo-2R-[3R-hydroxy-3-(spiro[3.3]hept-2-yl)-1E-propenyl]cyclopent-1R-yl}heptan-1-ol]
- Test E Cascade Assay, Colon, Activity Value (ED50) (rat colon): 0 (>10000)
- EC50 (Rat Uterus): > 10 µg/mL
- Test B Activity Value (% decrease in acidity, inhibition of gastric secretion) (Gastric Secretion): 4 (76-100)
- Test E Cascade Assay, Aorta, Activity Value (ED50) (rabbit aortic strip): 0 (>10000)
- Test E Cascade Assay, Stomach, Activity Value (ED50) (rat stomach fundus): 0 (>10000)
- Test E Cascade Assay, Rectum, Activity Value (ED50) (chick rectum): 1 (1001 - 10000)

Structure (SMILES): CCOC(=O)CCC/C=C\C[C@H]1C(=O)C[C@@H](O)[C@@H]1/C=C/[C@H](O)C1CC2(CCC2)C1 [TR-4726, Ethyl 7-{3R-hydroxy-5-oxo-2R-[3R-hydroxy-3-(spiro[3.3]hept-2-yl)-1E-propenyl]cyclopent-1R-yl}hept-5Z-enoate]
- Test E Cascade Assay, Colon, Activity Value (ED50) (rat colon): 0 (>10000)
- EC50 (Rat Uterus): > 10 µg/mL
- Test B Activity Value (% decrease in acidity, inhibition of gastric secretion) (Gastric Secretion): 0 (<26)
- Test E Cascade Assay, Aorta, Activity Value (ED50) (rabbit aortic strip): 0 (>10000)
- Test E Cascade Assay, Stomach, Activity Value (ED50) (rat stomach fundus): 0 (>10000)
- Test E Cascade Assay, Rectum, Activity Value (ED50) (chick rectum): 0 (>10000)

Structure (SMILES): CCOC(=O)CCC/C=C\C[C@H]1C(=O)C[C@@H](O)[C@@H]1/C=C/[C@@H](O)C1CC2(CCC2)C1 [TR-4727, Ethyl 7-{3R-hydroxy-5-oxo-2R-[3S-hydroxy-3-(spiro[3.3]hept-2-yl)-1E-propenyl]cyclopent-1R-yl}hept-5Z-enoate]
- Test E Cascade Assay, Colon, Activity Value (ED50) (rat colon): 0 (>10000)
- EC50 (Rat Uterus): > 10 µg/mL
- Test B Activity Value (% decrease in acidity, inhibition of gastric secretion) (Gastric Secretion): 0 (<26)
- Test E Cascade Assay, Aorta, Activity Value (ED50) (rabbit aortic strip): 0 (>10000)
- Test E Cascade Assay, Stomach, Activity Value (ED50) (rat stomach fundus): 0 (>10000)
- Test E Cascade Assay, Rectum, Activity Value (ED50) (chick rectum): 0 (>10000)

Structure (SMILES): CC1([C@@H](O)/C=C/[C@H]2[C@H](O)CC(=O)[C@@H]2CCCCCCCO)CC2(CCC2)C1 [TR-4841, 7-{3R-hydroxy-5-oxo-2R-[3S-hydroxy-3-(2-methylspiro[3.3]hept-2-yl)-1E-propenyl]cyclopent-1R-yl}heptan-1-ol]
- Test E Cascade Assay, Colon, Activity Value (ED50) (rat colon): 0 (>10000)
- EC50 (Rat Uterus): > 10 µg/mL
- Test B Activity Value (% decrease in acidity, inhibition of gastric secretion) (Gastric Secretion): 0 (<26)
- Test E Cascade Assay, Aorta, Activity Value (ED50) (rabbit aortic strip): 0 (>10000)
- Test E Cascade Assay, Stomach, Activity Value (ED50) (rat stomach fundus): 0 (>10000)
- Test E Cascade Assay, Rectum, Activity Value (ED50) (chick rectum): 0 (>10000)

Structure (SMILES): COC(=O)CCCCCC[C@H]1C(=O)C[C@@H](O)[C@@H]1/C=C/[C@H](O)C1(C)CC2(CCC2)C1 [TR-4842, Methyl 7-{3R-hydroxy-5-oxo-2R-[3S-hydroxy-3-(2-methylspiro[3.3]hept-2-yl)-1E-propenyl]cyclopent-1R-yl}heptanoate]
- Test E Cascade Assay, Colon, Activity Value (ED50) (rat colon): 0 (>10000)
- EC50 (Rat Uterus): > 10 µg/mL
- Test B Activity Value (% decrease in acidity, inhibition of gastric secretion) (Gastric Secretion): 0 (<26)
- Test E Cascade Assay, Aorta, Activity Value (ED50) (rabbit aortic strip): 0 (>10000)
- Test E Cascade Assay, Stomach, Activity Value (ED50) (rat stomach fundus): 0 (>10000)
- Test E Cascade Assay, Rectum, Activity Value (ED50) (chick rectum): 0 (>10000)

Structure (SMILES): CC1([C@H](O)/C=C/[C@H]2[C@H](O)CC(=O)[C@@H]2CCCCCCCO)CC2(CCC2)C1 [TR-4852, 7-{3R-hydroxy-5-oxo-2R-[3R-hydroxy-3-(2-methylspiro[3.3]hept-2-yl)-1E-propenyl]cyclopent-1R-yl}heptan-1-ol]
- Test E Cascade Assay, Colon, Activity Value (ED50) (rat colon): 0 (>10000)
- EC50 (Rat Uterus): 0.101 to 1 µg/mL (≈ 0.267 to 2.64 µM)
- Test B Activity Value (% decrease in acidity, inhibition of gastric secretion) (Gastric Secretion): 2 (26-50, significant)
- Test E Cascade Assay, Aorta, Activity Value (ED50) (rabbit aortic strip): 0 (>10000)
- Test E Cascade Assay, Stomach, Activity Value (ED50) (rat stomach fundus): 0 (>10000)
- Test E Cascade Assay, Rectum, Activity Value (ED50) (chick rectum): 0 (>10000)

Structure (SMILES): C[N+](C)(C)CCOC(N)=O [carbachol, reference compound]
- magnitude of second response to carbachol relative to the first (Rat Uterus; carbachol 1 mcg/ml, second response greater than the first): approximately 10%

Source: patent US4098823A, “Monospiroalkyl derivatives of prostaglandins” (Miles Laboratories, Inc., priority 1977, dated 1978)
